The record followed here is ChEMBL document CHEMBL1124341, “1',2'-seco-dideoxynucleosides as potential anti-HIV agents” (J Med Chem, 1989).

Experiment [1] deals with ATH-8 cell line. The experiment can be described thus: Tested against ATH8 cells infected with HIV (2 x 10 e3 virus partials per cell) at concentrations ranging from 1 to 100 µM; No protection. The format is functional, cell-based. The settings on record: Homo sapiens.
The subject of experiment [2] is ATH-8 cell line. The experiment in a line: Tested against ATH8 cells infected with HIV (2 x 10 e3 virus partials per cell) at concentration of 20 µM; Completely protected. Format: functional, cell-based. The conditions noted are these: Homo sapiens.

In the case of `CCC(CO)OCn1cnc2c(O)ncnc21` (stereo not given), in the experiment with ATH-8 cell line [1], the Activity result was “No protection”. In the case of `CCC(CO)OCn1cnc2c(O)nc(N)nc21` (stereo not given), in the experiment on ATH-8 cell line [1], the Activity result was “No protection”. Take `Nc1ncnc2c1ncn2[C@H]1CC[C@@H](CO)O1`: the Activity result in the experiment with ATH-8 cell line [2] is on record as “Completely protected”.

Regarding `CCC(CO)OCn1ccc(N)nc1=O` (stereo not given), in the experiment on ATH-8 cell line [1], the Activity entry is “No protection”. As for `CCC(CO)OCn1cnc2c(N)ncnc21` (stereo not given), the Activity result in the experiment with ATH-8 cell line [1] is “No protection”.
